Like-named read-outs stand apart in the source and are kept apart here.
Experiments:
[1] = Per rectal versus oral dosing of active parent: colon, liver, plasma exposure; format: in vivo; details: mouse
Experimental: Prior to dosing, mice were anaesthetized with Isoflurane and fecal material was removed from colons by irrigating with 0.5 mL of PBS using a syringe fitted with a 22 gauge flexible gavage needle. After a 20 min wake up period, mice were again anesthetized and drug was administered in a volume of 0.1–0.2 mL using a syringe fitted with a 22 gauge flexible gavage needle. Mice were then placed in the anesthesia chamber for 40 min in a supine position with hind end elevated to ensure drug remained in colon. After 40 min, mice were removed from the chamber and blood sampling over time (via tail nick) began.
(§1) Active Parent–Male CD1 mice (N = 3) received a single oral administration of compound 1 at 30 mg/kg prepared as a nanosuspension in 2% HPC-SL, 0.2% SDS in water and dosed at 10 ml/kg. Active Parent Prodrugs–Male CD1 mice or female C57BL/6 mice (N = 3) received a single oral adminstration of prodrug at 30 mg/kg active parent equivalent in either 10% Cremophor EL + 90% 1% Na-carboxymethylcellulose (NaCMC) at 10 ml/kg or as a nanosuspension in 2% HPC-SL, 0.2% SDS in water at 10 ml/kg.Blood samples were taken over 11 hours, and colon samples were taken at 3, 6 and/or 11 hours post dose. Mice received either Teklad Global Diet 2014 (Envigo Teklad, Madison, WI or LabDiet #5010 (LabDiet, St. Louis, MO).
(§2) Due to the inherent risk of fecal or PR-dosed material contaminating true levels of colon tissue exposure, careful flushing of colon tissue for drug analysis was required. Upon necropsy, a section of mouse colon was removed, and flushed with PBS until no visible fecal material was observed. Subsequently, a 1–2 cm section of colon was blotted dry, weighed and snap-frozen in liquid nitrogen.
(§3) Colon tissue (~50 mg) was diluted 10x in Veterinary Sterile Water for Irrigation (USP by Abbott), then 1.4 mm zirconium oxide beads were added and tissue was homogenized using an Omni Bead Ruptor 24 (Omni International, Kennesaw, GA). Aliquots of colon homogenate samples and a set of colon standards were pipetted in 96-well plates and subjected to protein precipitation extraction (with acetonitrile + internal standard) on a Microlab Star robot (Hamilton Robotics, Reno, NV). Plates were then mixed on a MixMate (Eppendorf, Hamburg, Germany) for 1 min at 1600 rpm and centrifuging for 5 min at 4000 rpm in 5810 R Centrifuge (Eppendorf, Hamburg, Germany). Supernatant was transferred into new plates and diluted with LC-MS/MS mobile phase.
(§4) Spiked standards were prepared in the appropriate matrices. All unknown samples and spiked standards were combined with acetonitrile containing internal standard, vortexed, and centrifuged to pellet the proteins. Supernatants were used for subsequent analysis by LC-MS/MS. The mobile phase consisted of acetonitrile with 0.1% formic acid, and water with 0.1% formic acid at a flow rate of 0.8 mL/min. Analytes were separated using reverse phase chromatography with a fast gradient on a 30 x 2.1 mm Fortis C18 Pace […] column, prior to analysis on a Sciex API5500™ mass spectrometer. Peak areas were determined using Sciex Analyst™ 1.6 software. Actual concentrations were calculated by regression analysis of the peak area ratio (parent / internal standard) of the spiked standards versus concentration.

CSF1R = CSF1R (Homo sapiens, UniProt P07333); experiment: CSF1R enzyme activity (TR-FRET binding displacement, kinase panel)
Experimental: TR-FRET-based binding displacement studies using active site probes were used to assess kinome selectivity of inhibitor molecules.[54] The concentrations of components for each purified kinase were based on optimized conditions with ranges as follows: kinases (1.25–12.5 nM), Oregon Green-labeled fluorescent probes (2x KD of probe to the particular kinase; range of 1–200 nM; in-house), terbium anti-His or anti-GST antibody (0.5–2 nM). The reaction buffer was diluted to 1x using ddH2O and contained 1 mM DTT.
Compounds were typically tested from 0.0001 to 10 μM in 10x dilutions. Reactions were carried out in a 20 μL volume in 384-well plates by combining kinase, probe, antibody, and test compound and allowing the reaction to come to equilibrium (incubation of 2 h). TR-FRET was then measured on a PerkinElmer Envision plate reader (excitation at 340 nm; emission at 520 and 495 nm). Competition by the test compound versus the fluorescent probe for the ATP binding site of the kinase was quantified by calculating the IC50 value based on a four-parameter logistic curve fit.

[2] = system: Mouse bone marrow derived macrophages (BMDM); experiment: Mouse macrophage differentiation assay (CSF-induced); format: cell-based
Experimental: Mouse bone marrow derived macrophages (BMDM) were isolated as previously described[53] from C57BL/6 female mice. The isolated cells were washed using standard growth medium (RPMI (Gibco cat# 11875–093) with 2 mM L-glutamine (Gibco cat# 25033), 1% Pen/Strep (Gibco cat# 15140), 10% heat inactivated fetal bovine serum (HI-FBS, Gibco cat# 10438), and 0.1% beta-mercaptoethanol (BME, Gibco cat# 21985–023)), and filtered through a […] cell strainer (Falcon cat# 352360). Cells were counted, re-suspended in growth medium, and plated at 1x10^5 viable cells per well in a 96 well plate (Corning cat# 3603). Inhibitors were added at various concentrations to the cells, and incubated at 37°C/5% CO2 for 30 minutes. Recombinant mouse macrophage colony stimulating factor (M-CSF, R&D cat# 416-ML-010) was added to the plates at a final concentration of […]. Plates were transferred to a 37°C/5% CO2 incubator for 5 days. On the fifth day, supernatant was removed from each well and Cell Titer Glo (Promega cat#G7571) was added. Plates were covered from the light and incubated at room temperature for 10 minutes before reading the luminescence on an EnVision plate reader (PerkinElmer).

[3] = Pharmacokinetic studies of active parent in mice; format: in vivo; details: mouse; for clearance: male, CD1, blood, read-out: Blood Clearance (total clearance) (converted); for clearance / Blood Clearance (unbound clearance, CLb/fub): 1 mg/kg IV, N = 2–3; for FaFg: 1 mg/kg, F/Fh (compound 6) or AUCoral/AUCip
Experimental: Male CD1 mice on Teklad Global Diet 2014 (Envigo Teklad, Madison, WI) (n = 2–3 per study) received a single IV, oral or intraperitoneal (IP) administration of compounds 1, 4, 5 or 6 at 1 mg/kg in 2:5:20:73 (v/v) DMSO:Tween 80:PEG-400:D5W dosed at 10 ml/kg. Serial blood samples were taken over 24h and frozen at −20°C until analysis. Pharmacokinetic parameters after IP or PO dosing were calculated by noncompartmental methods, while pharmacokinetic parameters after IV dosing were calculated by compartmental methods using WinNonlin (version 5.2, Certara USA Inc., St. Louis, MO). Mean parameters were determined from 1–3 separate studies. FaFg was determined as F/Fh (compound 6) or as the ratio of AUC after an oral dose to that after an IP dose (AUCoral/AUCip).

PAMPA permeability = format: in vitro ADME
[4] = Plasma stability in vitro; format: in vitro ADME, mouse
[5] = Oral administration of prodrugs to mice: colon, plasma, feces exposure; format: in vivo; details: mouse; for Prodrug levels in plasma after oral dosing / Prodrug plasma concentration, fold lower than active parent 1: dose equal to 30 mg/kg of 1; for Plasma versus colon levels of active parent 1 after oral prodrug: dose equal to 30 mg/kg of 1, 3 and 11 h
Experimental: as §1, §2, §3, §4

[6] = PK experiment dosing hemi-succinate 15 IV or PO; format: in vivo, mouse; details: IV or PO 1 mg/kg; 0.5 to 12 h
[7] = CSF-induced mouse macrophage differentiation, mean from n ≥3 experiments, read-out: Mouse Mac EC50
[8] = Mus musculus, adjusted for binding in 10% FBS, read-out: Cellular EC50 corrected for binding in 10% FBS

Sequence of CSF1R (P07333 20-972): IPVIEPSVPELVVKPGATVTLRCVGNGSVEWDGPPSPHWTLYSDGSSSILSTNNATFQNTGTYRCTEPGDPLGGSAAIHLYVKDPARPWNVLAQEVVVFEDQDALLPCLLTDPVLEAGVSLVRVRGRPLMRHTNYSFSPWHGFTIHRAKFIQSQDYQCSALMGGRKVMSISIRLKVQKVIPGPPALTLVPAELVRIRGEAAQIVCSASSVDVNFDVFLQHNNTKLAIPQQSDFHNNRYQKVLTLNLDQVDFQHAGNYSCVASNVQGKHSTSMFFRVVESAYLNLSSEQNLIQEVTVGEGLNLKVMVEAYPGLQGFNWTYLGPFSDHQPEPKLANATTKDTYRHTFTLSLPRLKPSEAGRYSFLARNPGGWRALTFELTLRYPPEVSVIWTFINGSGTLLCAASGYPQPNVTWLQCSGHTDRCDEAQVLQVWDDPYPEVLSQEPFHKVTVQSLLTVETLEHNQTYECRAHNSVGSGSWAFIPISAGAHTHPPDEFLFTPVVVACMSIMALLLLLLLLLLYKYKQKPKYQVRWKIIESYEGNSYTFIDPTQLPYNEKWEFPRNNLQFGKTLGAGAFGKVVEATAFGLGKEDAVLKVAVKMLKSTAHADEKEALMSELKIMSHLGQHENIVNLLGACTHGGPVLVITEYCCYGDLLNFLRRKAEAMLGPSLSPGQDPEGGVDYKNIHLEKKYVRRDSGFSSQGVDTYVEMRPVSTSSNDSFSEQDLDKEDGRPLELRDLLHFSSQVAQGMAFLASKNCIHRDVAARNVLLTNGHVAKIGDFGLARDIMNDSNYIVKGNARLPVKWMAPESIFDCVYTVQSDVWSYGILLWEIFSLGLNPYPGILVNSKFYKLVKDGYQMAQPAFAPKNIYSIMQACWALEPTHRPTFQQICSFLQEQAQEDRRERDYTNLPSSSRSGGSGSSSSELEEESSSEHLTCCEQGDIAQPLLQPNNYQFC

| IC50 (CSF1R) [nM] | EC50 [2, 7] [nM] | EC50 [2, 8] [µg/mL] | clearance [3] [mL/min/kg] | Blood Clearance (unbound clearance, CLb/fub) [3] [mL/min/kg] | FaFg [3] [%] | Papp (PAMPA permeability) [×10⁻⁶ cm/s] | Prodrug levels in plasma after oral dosing [5] | SMILES | also measured |
| --- | --- | --- | --- | --- | --- | --- | --- | --- | --- |
| < 10 | 113 | 0.022 | 75 | 2500 | 43 | 15.6 |  | O[C@H]1CC[C@H](n2cc(Nc3nc(C4CCCCC4)cn4ncnc34)cn2)CC1 [Compound 1, (1r,4r)-4-(4-((6-Cyclohexyl-[1,2,4]triazolo[1,5-a]pyrazin-8-yl)amino)-1H-pyrazol-1-yl)cyclohexanol] | Kp at 1 h ([1]; colon and plasma, other: per rectal (PR), PR 30 mg/kg, 1 h, read-out: colon:plasma ratio (unbound)): 22; Kp at 3 h ([1]; male, CD1, colon and plasma, PO 30 mg/kg, 3 h, read-out: colon:plasma ratio (unbound)): 0.5; Mean colon unbound Cmax ([1]; PO 30 mg/kg, 3 h): 9 ng/g; colon:liver ratio (unbound) ([1]; PO 30 mg/kg, 3 h): 0.34 x; Mean colon unbound Cmax ([1]; PR 30 mg/kg, 1 h): 67 ng/g; colon:liver ratio (unbound) ([1]; PR 30 mg/kg, 1 h): 7 x; Compound in the colon at the terminal time point ([1]; PR 30 mg/kg, 11 h): Lack of compound detection in the colon; 1 h colon exposure versus cellular EC50 ([1]; PR 30 mg/kg, unbound): exceeded the cellular EC50; 1 h plasma exposure exceeding cellular EC50 ([1]; PR 30 mg/kg, unbound): did not |
| < 10 | 245 | 0.019 | 108 | 1700 | 18 | 14.1 |  | OCCn1cc(Nc2nc(C3CCCCC3)cn3ncnc23)cn1 [Compound 4, 2-(4-((6-Cyclohexyl-[1,2,4]triazolo[1,5-a]pyrazin-8-yl)amino)-1H-pyrazol-1-yl)ethanol] |  |
| < 10 | 104 | 0.021 | 80 | 3280 | 32 | 8.7 |  | CC(C)(O)CCn1cc(Nc2nc(C3CCCCC3)cn3ncnc23)cn1 [Compound 5, 4-(4-((6-Cyclohexyl-[1,2,4]triazolo[1,5-a]pyrazin-8-yl)amino)-1H-pyrazol-1-yl)-2-methylbutan-2-ol] |  |
| < 10 | 196 | 0.042 | 16.7 | 317 | 35 | 14.6 |  | O=C(O)[C@H]1CC[C@H](n2cc(Nc3nc(C4CCCCC4)cn4ncnc34)cn2)CC1 [Compound 6] |  |
|  |  |  |  |  |  |  |  | CC(C)C(N)C(=O)OC1CCC(n2cc(Nc3nc(C4CCCCC4)cn4ncnc34)cn2)CC1 [Compound 8, (R)-(1r,4r)-4-(4-((6-Cyclohexyl-[1,2,4]triazolo[1,5-a]pyrazin-8-yl)amino)-1H-pyrazol-1-yl)cyclohexyl 2-amino-3-methylbutanoate] | Prodrug plasma concentration, fold lower than active parent 1 [5]: ~ 10 x; Plasma versus colon levels of active parent 1 after oral prodrug [5]: significantly higher plasma versus colon drug levels |
|  |  |  |  |  |  |  |  | OCC1OC(OC2CCC(n3cc(Nc4nc(C5CCCCC5)cn5ncnc45)cn3)CC2)C(O)C(O)C1O [Compound 9, (2R,3R,4S,5S,6R)-2-(((1r,4r)-4-(4-((6-Cyclohexyl-[1,2,4]triazolo[1,5-a]pyrazin-8-yl)amino)-1H-pyrazol-1-yl)cyclohexyl)oxy)-6-(hydroxymethyl)tetrahydro-2H-pyran-3,4,5-triol] | Prodrug plasma concentration, fold lower than active parent 1 [5]: ~ 100 x |
|  |  |  |  |  |  |  | no measureable plasma levels | OCC1OC(OC2CCC(n3cc(Nc4nc(C5CCCCC5)cn5ncnc45)cn3)CC2)C(O)C(O)C1O [Compound 10, (2S,3R,4S,5S,6R)-2-(((1r,4s)-4-(4-((6-cyclohexyl-[1,2,4]triazolo[1,5-a]pyrazin-8-yl)amino)-1H-pyrazol-1-yl)cyclohexyl)oxy)-6-(hydroxymethyl)tetrahydro-2H-pyran-3,4,5-triol] |  |
|  |  |  |  |  |  |  | no measureable plasma levels | O=C(O)C1OC(OC2CCC(n3cc(Nc4nc(C5CCCCC5)cn5ncnc45)cn3)CC2)C(O)C(O)C1O [Compound 11, (2S,3S,4S,5R,6R)-6-(((1r,4r)-4-(4-((6-Cyclohexyl-[1,2,4]triazolo[1,5-a]pyrazin-8-yl)amino)-1H-pyrazol-1-yl)cyclohexyl)oxy)-3,4,5-trihydroxytetrahydro-2H-pyran-2-carboxylic acid] |  |
|  |  |  |  |  |  |  |  | O=C(O)CCC(=O)O[C@H]1CC[C@H](n2cc(Nc3nc(C4CCCCC4)cn4ncnc34)cn2)CC1 [Compound 15, 4-(((1r,4r)-4-(4-((6-Cyclohexyl-[1,2,4]triazolo[1,5-a]pyrazin-8-yl)amino)-1H-pyrazol-1-yl)cyclohexyl)oxy)-4-oxobutanoic acid] | Plasma levels of 15 [6]: no detectable plasma levels of 15; CSF1R enzyme activity inhibition (CSF1R): able to inhibit CSF1R enzyme activity; Stability in plasma [4]: not stable in mouse plasma in vitro |

| SMILES | IC50 (CSF1R) [nM] | EC50 [2, 7] [nM] | EC50 [2, 8] [µg/mL] | clearance [3] [mL/min/kg] | Blood Clearance (unbound clearance, CLb/fub) [3] [mL/min/kg] | FaFg [3] [%] | Papp (PAMPA permeability) [×10⁻⁶ cm/s] | Prodrug levels in plasma after oral dosing [5] | also measured |
| --- | --- | --- | --- | --- | --- | --- | --- | --- | --- |
| CN(C)CC(=O)OC1CCC(n2cc(Nc3nc(C4CCCCC4)cn4ncnc34)cn2)CC1 (stereo not drawn) [Compound 7, (1r,4r)-4-(4-((6-Cyclohexyl-[1,2,4]triazolo[1,5-a]pyrazin-8-yl)amino)-1H-pyrazol-1-yl)cyclohexyl 2-(dimethylamino)acetate] |  |  |  |  |  |  |  | no prodrug levels were measurable in plasma | Stability in plasma [4]: not stable in plasma; Plasma versus colon levels of active parent 1 after oral prodrug [5]: significantly higher plasma versus colon drug levels |

Source: PMC6128612, “Prodrugs for colon-restricted delivery: Design, synthesis, and in vivo evaluation of colony stimulating factor 1 receptor (CSF1R) inhibitors” (PLoS ONE, 2018)
